Blank lines part the entries; values can stand above or below the molecule they belong to.
Assays:
[1] = biological target: T1, ciliary TRPP2-dependent channel (Mus musculus, UniProt J9SQF3); assay: Electrical recording of the large-conductance channel in single excised primary cilia of mIMCD-3 cells; type: biochemical, murine; parameters: mean single-channel conductance (slope) / extrapolated reversal potential (x-intercept): dose or concentration left out as unconfirmed; settings: for increase of mean channel current (factor): +60 mV
T1 construct: Electrical recordings were made from primary cilia of mIMCD-3 cells; host or cells: mIMCD-3 cells, excised primary cilia (inside-out) or apical membrane patches
T1 sequence (J9SQF3 whole entry): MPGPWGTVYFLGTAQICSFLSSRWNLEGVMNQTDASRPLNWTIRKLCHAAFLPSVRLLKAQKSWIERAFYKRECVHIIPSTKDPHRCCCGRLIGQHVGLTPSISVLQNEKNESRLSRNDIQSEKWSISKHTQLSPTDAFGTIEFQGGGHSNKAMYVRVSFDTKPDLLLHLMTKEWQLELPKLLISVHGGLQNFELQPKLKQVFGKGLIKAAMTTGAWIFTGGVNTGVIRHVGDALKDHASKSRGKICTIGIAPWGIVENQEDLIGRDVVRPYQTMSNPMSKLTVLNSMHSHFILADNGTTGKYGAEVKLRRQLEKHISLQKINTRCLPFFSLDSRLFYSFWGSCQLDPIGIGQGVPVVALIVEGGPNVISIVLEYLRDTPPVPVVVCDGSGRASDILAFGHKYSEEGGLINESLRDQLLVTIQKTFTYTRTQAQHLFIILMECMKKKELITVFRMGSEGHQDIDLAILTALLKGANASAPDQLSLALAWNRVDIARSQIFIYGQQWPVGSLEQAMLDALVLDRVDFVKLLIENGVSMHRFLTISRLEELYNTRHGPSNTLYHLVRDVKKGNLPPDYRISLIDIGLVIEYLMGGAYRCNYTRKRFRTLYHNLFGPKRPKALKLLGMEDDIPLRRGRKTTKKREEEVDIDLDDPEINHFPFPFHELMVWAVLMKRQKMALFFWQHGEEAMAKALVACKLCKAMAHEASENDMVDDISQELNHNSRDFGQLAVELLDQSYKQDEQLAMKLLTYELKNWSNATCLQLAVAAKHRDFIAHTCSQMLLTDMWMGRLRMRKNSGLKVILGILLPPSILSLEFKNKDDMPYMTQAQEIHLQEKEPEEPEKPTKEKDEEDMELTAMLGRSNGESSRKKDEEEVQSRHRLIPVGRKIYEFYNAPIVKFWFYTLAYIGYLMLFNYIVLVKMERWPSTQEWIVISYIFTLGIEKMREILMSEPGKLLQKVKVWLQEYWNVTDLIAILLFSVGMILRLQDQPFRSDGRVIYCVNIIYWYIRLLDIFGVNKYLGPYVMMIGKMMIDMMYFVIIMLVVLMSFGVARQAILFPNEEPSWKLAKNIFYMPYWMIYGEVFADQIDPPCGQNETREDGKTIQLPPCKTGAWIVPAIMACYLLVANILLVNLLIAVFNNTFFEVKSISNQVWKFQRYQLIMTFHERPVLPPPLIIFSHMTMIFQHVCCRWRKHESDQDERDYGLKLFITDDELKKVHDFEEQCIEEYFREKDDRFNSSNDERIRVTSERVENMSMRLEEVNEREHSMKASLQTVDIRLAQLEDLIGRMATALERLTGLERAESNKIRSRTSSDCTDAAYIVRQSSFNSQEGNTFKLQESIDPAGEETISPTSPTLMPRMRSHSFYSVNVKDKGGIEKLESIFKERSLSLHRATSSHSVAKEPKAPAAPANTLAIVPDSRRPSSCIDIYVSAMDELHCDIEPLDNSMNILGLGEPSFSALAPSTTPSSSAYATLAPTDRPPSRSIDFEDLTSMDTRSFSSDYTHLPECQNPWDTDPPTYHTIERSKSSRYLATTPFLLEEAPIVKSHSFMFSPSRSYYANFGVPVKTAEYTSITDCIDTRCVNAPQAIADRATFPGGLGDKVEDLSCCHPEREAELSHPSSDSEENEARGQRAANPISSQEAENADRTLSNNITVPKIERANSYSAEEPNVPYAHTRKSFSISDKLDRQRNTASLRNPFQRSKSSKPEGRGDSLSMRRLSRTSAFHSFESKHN
Experimental: (§1) Electrical recordings were made from primary cilia of mIMCD-3 cells. mIMCD-3 cells (murine epithelial cells from the renal inner medullary collecting duct, (CRL-2123, American Type Culture Collection, Manassas, Va., USA) were cultured on beads that were free to move in the recording chamber. Suction was applied to a recording pipette so that a single primary cilium entered the pipette. If a resistance of at least 1 GΩ formed between the membrane and the pipette, the cilium was excised from the cell. This left the cilium inside the recording pipette in the inside-out configuration. The pipette containing the cilium could then be transferred among different solutions that bathed the cytoplasmic face of the membrane. In one set of experiments (FIGS. 1 and 2), the external solution was replaced by perfusing the pipette (FIG. 14).
During recording, the beads coated with cells were stored in a standard external solution containing (in mM) NaCl 140, KCl 5, CaCl2 2, MgCl2 2, sodium pyruvate 2, HEPES 5, and D-glucose 9.4, adjusted to pH 7.4 with NaOH. The recording pipettes also contained this solution except as noted. […] The standard cytoplasmic solution contained (in mM) KCl 140, NaCl 5, CaCl2 0.7, MgCl2 2, HEPES 5, BAPTA 2, and D-glucose 5, adjusted to pH 7.4 with KOH. This solution contained 0.1 μM free Ca^2+. To make a cytoplasmic solution with 3 μM free Ca^2+, BAPTA was replaced with dibromoBAPTA, and the total CaCl2 was increased to 1.4 mM. In buffered solutions, concentrations of free Ca^2+ were estimated by the method of Bers (see Bers D M: “A simple method for the accurate determination of free [Ca] in Ca-EGTA solutions” Am J Physiol Cell Physiol. 1982; 242: C404-C408), which is herein incorporated by reference in its entirety.
All recordings were done under voltage clamp at room temperature (24° C.). Equipment, software, and technical details, including corrections for liquid junction potentials, were conducted as described in the article: Kleene S J, Kleene N K. “The native TRPP2-dependent channel of murine renal primary cilia” Am J Physiol Renal Physiol. 2017; 312: F96-F108, which is herein incorporated by reference in its entirety. During acquisition, currents were low-pass filtered at 2 kHz and digitized at 5 kHz. Total mean channel current was measured as the mean current minus the current attributed to leak channels. The latter was determined from an amplitude histogram. […] Channel open probabilities were determined from amplitude histograms and are reported only when the number of channels in the membrane was unambiguous. The presence or absence of active TRPP2 channels was assessed with the cilium or patch exposed to 3 μM cytoplasmic Ca^2+ and the voltage clamped to +40 mV. If no large-conductance channels were seen to open within 2 min, active TRPP2 channels were judged to be absent.

TRPP2-dependent channels = biological target: T2, TRPP2-dependent channels (Mus musculus, UniProt J9SQF3); assay: Incidences of TRPP2-dependent channels in apical and ciliary membranes; type: biochemical, murine; settings: for incidence of TRPP2-dependent channels: PS 75 or 230 μM external, 3 μM cytoplasmic Ca2+, +40 mV
T2 construct: Electrical recordings were made from primary cilia of mIMCD-3 cells; host or cells: mIMCD-3 cells, excised primary cilia (inside-out) or apical membrane patches
T2 sequence (J9SQF3 whole entry): as above
Experimental: In Table 1, the presence or absence of active TRPP2 channels was assessed with the cilium or apical membrane patch exposed to 3 μM cytoplasmic Ca^2+ and the voltage clamped to +40 mV. If no large-conductance channels were seen to open within 2 min, active TRPP2 channels were judged to be absent. […] PS, pregnenolone sulfate; KO, knockout; ND, not determined.
as §1
All recordings were done under voltage clamp at room temperature (24° C.). Equipment, software, and technical details, including corrections for liquid junction potentials, were conducted as described in the article: Kleene S J, Kleene N K. “The native TRPP2-dependent channel of murine renal primary cilia” Am J Physiol Renal Physiol. 2017; 312: F96-F108, which is herein incorporated by reference in its entirety. During acquisition, currents were low-pass filtered at 2 kHz and digitized at 5 kHz. Total mean channel current was measured as the mean current minus the current attributed to leak channels. The latter was determined from an amplitude histogram. In each cilium reported, the number of large-conductance channels was between 1 and 5. Channel open probabilities were determined from amplitude histograms and are reported only when the number of channels in the membrane was unambiguous. The presence or absence of active TRPP2 channels was assessed with the cilium or patch exposed to 3 μM cytoplasmic Ca^2+ and the voltage clamped to +40 mV. If no large-conductance channels were seen to open within 2 min, active TRPP2 channels were judged to be absent. These cilia have a second Ca^2+-activated channel, TRPM4, but it is not activated by the concentrations of cytoplasmic Ca^2+ used in this study ([…] The half-maximal effect of Ca^2+ on ciliary TRPM4 occurs at 646 μM at +100 mV and 1166 μM at −100 mV.

mIMCD-3 cells = assay: Measuring intracellular calcium (Fura2-AM, F340/F380) in mIMCD-3 cells; type: cell-based, murine; settings: 200 μM pregnenolone sulfate in 0.4% DMSO
Experimental: Wild-type (WT) mIMCD-3 cells and a clone of mIMCD-3 cells that lacked TRPP2 (TRPP2 KO) were grown to confluence in a 96-well plate and loaded with Fura2-AM, a ratiometric Ca^2+ indicator dye. The ratio of the fluorescence (after background subtraction) at 340 nm and 380 nm (F340/F380) correlates with the cytoplasmic Ca^2+ concentration. […] Unlike in the electrophysiological ciliary recordings, here the apical surface of the cell, including the cilium, is exposed to the pregnenolone sulfate. […] Responses from individual wells are shown as black circles. The experiment was done with two different passages for each cell line for a total of 19 wells per condition.
Wild-type mIMCD-3 cells and one mIMCD-3 clone with TRPP2 knocked out were grown to confluence in a 96-well plate. Standard external solution with 1 mM probenecid was used for all solutions. […] The ratio of the fluorescence (after background subtraction) at 340 nm and 380 nm (F340/F380) indicates the cytoplasmic Ca^2+ concentration and was measured on a BioTek Synergy 4 plate reader. Background fluorescence (wells with cells, 0.01% pluronic acid, and 0.1% DMSO in standard external solution, but no dye) was subtracted from the F340 and F380 readings. […]

TRPM4 = biological target: T3, TRPM4 (Mus musculus, UniProt Q7TN37); assay: TRPM4 current in cilia of TRPM3-knockout mIMCD-3 cells; type: biochemical, murine; settings: 2 mM cytoplasmic MgATP, cilia lacking TRPM3
T3 construct: endogenous in cells; host or cells: mIMCD-3 cell line with TRPM3 knocked out by CRISPR/Cas9; excised primary cilia
T3 sequence (Q7TN37 whole entry): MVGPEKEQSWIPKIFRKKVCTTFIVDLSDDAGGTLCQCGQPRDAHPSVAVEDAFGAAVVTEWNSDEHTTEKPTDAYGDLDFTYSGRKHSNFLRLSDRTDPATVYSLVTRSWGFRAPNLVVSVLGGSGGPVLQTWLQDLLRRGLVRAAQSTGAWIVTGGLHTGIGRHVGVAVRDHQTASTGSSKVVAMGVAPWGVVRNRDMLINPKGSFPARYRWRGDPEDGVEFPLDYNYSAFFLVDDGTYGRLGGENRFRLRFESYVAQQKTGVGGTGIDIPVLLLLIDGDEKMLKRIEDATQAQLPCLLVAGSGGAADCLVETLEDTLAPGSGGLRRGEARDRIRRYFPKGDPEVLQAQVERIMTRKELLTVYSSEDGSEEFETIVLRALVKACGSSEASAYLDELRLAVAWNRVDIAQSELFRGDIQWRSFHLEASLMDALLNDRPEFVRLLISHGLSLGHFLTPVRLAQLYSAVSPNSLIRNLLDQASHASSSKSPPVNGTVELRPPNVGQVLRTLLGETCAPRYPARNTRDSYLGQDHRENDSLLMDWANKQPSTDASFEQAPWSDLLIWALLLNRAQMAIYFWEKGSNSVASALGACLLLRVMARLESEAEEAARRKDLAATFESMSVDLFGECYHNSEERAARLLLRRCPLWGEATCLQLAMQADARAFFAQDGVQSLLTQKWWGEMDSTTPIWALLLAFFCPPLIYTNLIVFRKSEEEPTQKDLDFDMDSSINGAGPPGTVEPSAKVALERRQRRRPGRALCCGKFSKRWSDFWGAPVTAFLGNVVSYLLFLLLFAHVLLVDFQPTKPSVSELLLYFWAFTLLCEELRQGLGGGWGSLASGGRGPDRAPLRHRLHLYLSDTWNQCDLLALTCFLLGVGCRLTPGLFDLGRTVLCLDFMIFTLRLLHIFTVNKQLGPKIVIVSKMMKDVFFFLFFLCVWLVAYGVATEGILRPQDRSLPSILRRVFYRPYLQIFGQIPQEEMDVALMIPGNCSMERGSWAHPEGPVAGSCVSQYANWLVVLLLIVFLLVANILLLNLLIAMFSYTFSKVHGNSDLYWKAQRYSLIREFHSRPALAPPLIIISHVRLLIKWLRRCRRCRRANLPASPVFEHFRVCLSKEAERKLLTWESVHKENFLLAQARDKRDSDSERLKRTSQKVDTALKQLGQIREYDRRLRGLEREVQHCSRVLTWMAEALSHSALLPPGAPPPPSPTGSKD
Description: The large-conductance ciliary channel is not detectable unless TRPP2 is expressed. Given the pharmacological similarities between the ciliary TRPP2-dependent channel and TRPM3, we investigated whether the ciliary channel also requires expression of TRPM3. We used an mIMCD-3 cell line in which TRPM3 was knocked out by CRISPR/Cas9 genome editing. In electrical recordings from the primary cilia of cells lacking TRPM3, the large-conductance channel was never seen (n=45, Table 1, TRPM3 KO). […] Knocking out TRPM3 had no effect on the activity of another ciliary channel, TRPM4. In 17 cilia tested from TRPM3-knockout cells, 1 mM cytoplasmic Ca^2+ on average activated a current at +100 mV of 47±7 pA. […] As in cilia of wild-type cells, 2 mM cytoplasmic MgATP blocked the TRPM4 current. […]
All recordings were done under voltage clamp at room temperature (24° C.). […] Total mean channel current was measured as the mean current minus the current attributed to leak channels. The latter was determined from an amplitude histogram. […] Channel open probabilities were determined from amplitude histograms and are reported only when the number of channels in the membrane was unambiguous. The presence or absence of active TRPP2 channels was assessed with the cilium or patch exposed to 3 μM cytoplasmic Ca^2+ and the voltage clamped to +40 mV. […]

Molecule: Pregnenolone sulfate
k (Boltzmann slope factor) ([1]; 1 μM external PS, 3 μM cytoplasmic Ca2+): 13.5 ± 1.0 mV
V1/2 (potential at which open probability is 0.5) ([1]; 1 μM external PS, 3 μM cytoplasmic Ca2+, Vm −40 to +60 mV): −5.6 ± 1.1 mV
channel activation at 230 μM compared with 75 μM ([1]; 3 μM cytoplasmic Ca2+, FIG. 7): no more effective
k (Boltzmann slope factor) ([1]; 10 μM external PS, 3 μM cytoplasmic Ca2+): 18.3 ± 1.5 mV
V1/2 (potential at which open probability is 0.5) ([1]; 10 μM external PS, 3 μM cytoplasmic Ca2+, Vm −40 to +50 mV): −21.4 ± 1.4 mV
k (Boltzmann slope factor) ([1]; 75 μM external PS, KCl-based external solution, 3 μM cytoplasmic Ca2+): 14.8 ± 0.9 mV
V1/2 (potential at which open probability is 0.5) ([1]; 75 μM external PS, KCl-based external solution, 3 μM cytoplasmic Ca2+, Vm −140 to −20 mV): −67.2 ± 1.0 mV
increase of mean channel current (factor) ([1]; […] μM cytoplasmic pregnenolone sulfate, 0.1 μM cytoplasmic Ca2+): 3.6±0.7
increase of mean channel current (factor) ([1]; […] μM external (pipette) pregnenolone sulfate, 0.1 μM cytoplasmic free Ca2+): 30±12
extrapolated reversal potential (x-intercept) ([1]; […] μM external pregnenolone sulfate, standard external solution): −67±2 mV
mean single-channel conductance (slope) ([1]; […] μM external pregnenolone sulfate, standard external solution, fit −40 to +50 mV): 92±3 pS
fraction of the mean channel current remaining after replacing external solution with one lacking pregnenolone sulfate ([1]; after 75 μM external pregnenolone sulfate, −10 mV, free Ca2+ 3): 0.14±0.08
channel activity (open probability) ([1]; external pregnenolone sulfate up to 75 μM, 0.1 μM cytoplasmic Ca2+, FIG. 5): significantly increased the channel activity
incidence of TRPP2-dependent channels (TRPP2-dependent channels; apical membrane, TRPM3 KO): 0/34
incidence of TRPP2-dependent channels (TRPP2-dependent channels; apical membrane, TRPP2 KO): 0/30
incidence of TRPP2-dependent channels (TRPP2-dependent channels; apical membrane, wild type): 3/57
incidence of TRPP2-dependent channels (TRPP2-dependent channels; ciliary membrane, TRPP2 KO): 0/28
incidence of TRPP2-dependent channels (TRPP2-dependent channels; ciliary membrane, wild type): 77/259
cilia in which channels were observed (TRPP2-dependent channels; wild type cilia exposed to pregnenolone sulfate): 30%
cytoplasmic Ca2+ response (Post Stim. F340/F380 − Pre Stim. F340/F380) (mIMCD-3 cells; TRPP2 KO mIMCD-3 cells, compared with wild-type): smaller response
cytoplasmic Ca2+ response (Post Stim. F340/F380 − Pre Stim. F340/F380) (mIMCD-3 cells; wild-type mIMCD-3 cells): increased cytoplasmic Ca^2+

fraction of TRPM4 current remaining after addition of MgATP (TRPM4): 0.34±0.03
Molecule: Nc1ncnc2c1ncn2[C@@H]1O[C@H](COP(=O)(O)OP(=O)([O-])OP(=O)([O-])O)[C@@H](O)[C@H]1O.[Mg+2] [MgATP]

Reference: patent publication US20210299144A1, “USE OF PR[…] TO REDUCE CYST FORMATION IN KIDNEY” (priority 2019, published 2021)
